Measurements as given in patent US8962608B2, “Cycloalkylnitrile pyrazole carboxamides as janus kinase inhibitors” (Merck Sharp & Dohme Corp., priority 2011, dated 2015).

Each compound was assayed against JAK1 (recombinant purified GST-tagged catalytic domain) (Homo sapiens (Human), UniProt P23458) (assay: biochemical).
Chain of JAK1 (recombinant purified GST-tagged catalytic domain) (P23458 875-1153): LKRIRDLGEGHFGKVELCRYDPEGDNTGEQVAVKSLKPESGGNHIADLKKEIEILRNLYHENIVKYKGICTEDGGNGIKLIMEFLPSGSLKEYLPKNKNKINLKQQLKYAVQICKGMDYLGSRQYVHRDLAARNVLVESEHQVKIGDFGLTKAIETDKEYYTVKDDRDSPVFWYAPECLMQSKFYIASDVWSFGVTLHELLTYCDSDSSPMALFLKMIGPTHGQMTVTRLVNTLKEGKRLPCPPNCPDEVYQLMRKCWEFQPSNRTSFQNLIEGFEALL
`N#C[C@H]1C[C@H](O)CCC1n1cc(C(N)=O)c(Nc2ccnc(F)c2)n1` (single isomer, unassigned) [Example 25-21, 1-[(1S,2S,4R or 1R,2R,4S)-2-cyano-4-hydroxycyclohexyl]-3-[(2-fluoropyridin-4-yl)amino]-1H-pyrazole-4-carboxamide] showed an IC50 of 1 nM.
`C[C@H]1C[C@H](C)N1[C@@H]1CC[C@H](n2cc(C(N)=O)c(Nc3ccc(C(F)(F)F)cc3)n2)[C@@H](C#N)C1` (single isomer, unassigned) [Example 28-20, 1-{(1S,2S,4R or 1R,2R,4S)-2-cyano-4-[(2S,4S or 2R,4R)-2,4-dimethylazetidin-1-yl]cyclohexyl}-3-{[4-(trifluoromethyl)phenyl]amino}-1H-pyrazole-4-carboxamide] was tested, and the IC50 was 5 nM.
`CNC1CCC(n2cc(C(N)=O)c(Nc3ccc(S(=O)(=O)C(F)(F)F)cc3)n2)[C@@H](C#N)C1` (mixture of isomers) [Example 27-6, 1-[(1S,2S and 1R,2R)-2-cyano-4-(methylamino)cyclohexyl]-3-({4-[(trifluoromethyl)sulfonyl]phenyl}amino)-1H-pyrazole-4-carboxamide] gave an IC50 of 0.08 nM.
Work on `N#C[C@@H]1C[C@H](C(=O)N[C@H](C2CC2)C(F)(F)F)CC[C@H]1n1cc(C(N)=O)c(Nc2ccc(Cl)cc2)n1` (single isomer, unassigned) [Example 35-25, 3-[(4-chlorophenyl)amino]-1-[(1R,2R,4R or 1S,2S,4S)-2-cyano-4-{[(1R)-1-cyclopropyl-2,2,2-trifluoroethyl]carbamoyl}cyclohexyl]-1H-pyrazole-4-carboxamide] yielded an IC50 of 21 nM.
`C[C@@]1(O)CC[C@H](n2cc(C(N)=O)c(Nc3ccc(Cl)c(F)c3)n2)[C@@H](C#N)C1` (single isomer, unassigned) [Example 32-7, 3-[(4-chloro-3-fluorophenyl)amino]-1-[(1S,2S,4R or 1R,2R,4S)-2-cyano-4-hydroxy-4-methylcyclohexyl]-1H-pyrazole-4-carboxamide] was tested, and the IC50 was 5 nM.
`N#C[C@H]1C[C@@H](N2CC(O)(C(F)(F)F)C2)CCC1n1cc(C(N)=O)c(Nc2ccc(Cl)cc2)n1` (single isomer, unassigned) [Example 28-213, 3-[(4-chlorophenyl)amino]-1-{(1S,2S,4S or 1R,2R,4R)-2-cyano-4-[3-hydroxy-3-(trifluoromethyl)azetidin-1-yl]cyclohexyl}-1H-pyrazole-4-carboxamide] gave an IC50 of 1 nM.
With `C=C[C@@]1(O)CC[C@H](n2cc(C(N)=O)c(Nc3ccc(Cl)cc3)n2)[C@@H](C#N)C1` (single isomer, unassigned) [Example 32-16, 3-[(4-chlorophenyl)amino]-1-[(1S,2S,4R or 1R,2R,4S)-2-cyano-4-ethenyl-4-hydroxycyclohexyl]-1H-pyrazole-4-carboxamide] the IC50 was 0.85 nM.
Work on `N#C[C@@H]1CCCC[C@H]1n1cc(C(N)=O)c(Nc2ccc3c(c2)CCS3(=O)=O)n1` (single isomer, unassigned) [Example 45-6, 1-[(1S,2R or 1R,2S)-2-cyanocyclohexyl)-3-[(1,1-dioxido-2,3-dihydro-1-benzothiophen-5-yl)amino]-1H-pyrazole-4-carboxamide] yielded an IC50 of 2 nM.
With `CC(C)CN(CC1CC1)[C@H]1CC[C@@H](n2cc(C(N)=O)c(Nc3ccc(C(F)(F)F)cc3)n2)[C@H](C#N)C1` (single isomer, unassigned) [Example 30-9, l-{(1R,2R,4S or 1S,2S,4R)-2-cyano-4-[(cyclopropylmethyl)(2-methylpropyl)amino]cyclo-hexyl}-3-{[4-(trifluoromethyl)phenyl]amino}-1H-pyrazole-4-carboxamide] the IC50 was 16 nM.
`N#C[C@H]1C[C@@H](N2CCC2)CC[C@@H]1n1cc(C(N)=O)c(Nc2ccc(OC(F)F)cc2)n1` (single isomer, unassigned) [Example 28-108, 1-[(1S,2S,4S or 1R,2R,4R)-4-azetidin-1-yl-2-cyanocyclohexyl]-3-{[4-(difluoromethoxy)phenyl]amino}-1H-pyrazole-4-carboxamide] was tested, and the IC50 was 2 nM.
Compound `CN([C@H]1CCC(n2cc(C(N)=O)c(Nc3ccc(Cl)cc3)n2)[C@@H](C#N)C1)C(C)(C)C1CC1` (single isomer, unassigned) [Example 28-229, 3-[(4-chlorophenyl)amino]-1-{(1S,2S,4S or 1R,2R,4R)-2-cyano-4-[(1-cyclopropyl-1-methylethyl)(methyl)amino]cyclo-hexyl}-1H-pyrazole-4-carboxamide] has an IC50 of 1 nM.
`CN[C@H]1CCC(n2cc(C(N)=O)c(Nc3ccc(S(=O)(=O)C(F)(F)F)cc3)n2)[C@@H](C#N)C1` (mixture of isomers) [Example 27-9, 1-[(1S,2S,4S and 1R,2R,4R)-2-cyano-4-(methylamino)cyclohexyl]-3-({4-[(trifluoromethyl)sulfonyl]phenyl}amino)-1H-pyrazole-4-carboxamide] showed an IC50 of 3 nM.
`C[C@](O)(c1ccc(Nc2nn([C@H]3CCCC[C@@H]3C#N)cc2C(N)=O)cn1)C(F)F` (single isomer, unassigned) [Example 17-39, 1-[(1S,2S or 1R,2R)-2-cyanocyclohexyl]-3-({6-[(1S or 1R)-2,2-difluoro-1-hydroxy-1-methylethyl]pyridin-3-yl}amino)-1H-pyrazole-4-carboxamide] showed an IC50 of 1 nM.
With `N#C[C@H]1C[C@@H](N2CCC2)CC[C@@H]1n1cc(C(N)=O)c(Nc2ccc(CC(F)(F)F)cc2)n1` (single isomer, unassigned) [Example 28-69, 1-[(1S,2S,4S or 1R,2R,4R)-4-azetidin-1-yl-2-cyanocyclohexyl]-3-{[4-(2,2,2-trifluoroethyl)phenyl]amino}-1H-pyrazole-4-carboxamide] the IC50 was 0.6 nM.
In the case of `CN(C)[C@H]1CCC(n2cc(C(N)=O)c(Nc3ccc(S(=O)(=O)C(F)(F)F)cc3)n2)[C@@H](C#N)C1` (mixture of isomers) [Example 27-8, 1-[(1S,2S,4S and 1R,2R,4R)-2-cyano-4-(dimethylamino)cyclohexyl]-3-({4-[(trifluoromethyl)sulfonyl]phenyl}amino)-1H-pyrazole-4-carboxamide], the IC50 is reported as 0.3 nM.
`N#C[C@H]1CCCC[C@@H]1n1cc(C(N)=O)c(Nc2ccc(F)nc2)n1` (single isomer, unassigned) [Example 17-19, 1-[(1S,2S or 1R,2R)-2-cyanocyclohexyl]-3-[(6-fluoropyridin-3-yl)amino]-1H-pyrazole-4-carboxamide] gave an IC50 of 3 nM.
`CC(C)NC(=O)O[C@@H]1CCC(n2cc(C(N)=O)c(Nc3ccc(F)cc3)n2)[C@@H](C#N)C1` (mixture of isomers) [Example 34-4, (1R,3S,4S and 1S,3R,4R)-4-{4-carbamoyl-3-[(4-fluorophenyl)amino]-1H-pyrazol-1-yl}-3-cyanocyclohexyl propan-2-ylcarbamate] showed an IC50 of 2 nM.
With `CC1(C)CN([C@@H]2CC[C@H](n3cc(C(N)=O)c(Nc4ccnc(F)c4)n3)[C@@H](C#N)C2)C1` (single isomer, unassigned) [Example 28-142, 1-[(1S,2S,4R or 1R,2R,4S)-2-cyano-4-(3,3-dimethylazetidin-1-yl)cyclohexyl]-3-[(2-fluoropyridin-4-yl)amino]-1H-pyrazole-4-carboxamide] the IC50 was 2 nM.
With `N#C[C@H]1C[C@@H](C(=O)N2CC(F)C2)CC[C@@H]1n1cc(C(N)=O)c(Nc2ccc(Cl)cc2)n1` (single isomer, unassigned) [Example 35-34, 3-[(4-chlorophenyl)amino]-1-{(1S,2S,4S or 1R,2R,4R)-2-cyano-4-[(3-fluoroazetidin-1-yl)carbonyl]cyclohexyl}-1H-pyrazole-4-carboxamide] the IC50 was 3 nM.
With `CC(C)(CF)c1ccc(Nc2nn([C@H]3CC[C@@H](O)C[C@@H]3C#N)cc2C(N)=O)cc1` (single isomer, unassigned) [Example 25-9, 1-[(1S,2S,4R or 1R,2R,4S)-2-cyano-4-hydroxycyclohexyl]-3-{[4-(2-fluoro-1,1-dimethylethyl)phenyl]amino}-1H-pyrazole-4-carboxamide] the IC50 was 1 nM.
With `COC(C)(C)c1ccc(Nc2nn([C@H]3CC[C@@H](O)C[C@@H]3C#N)cc2C(N)=O)cc1` (single isomer, unassigned) [Example 25-11, 1-[(1S,2S,4R or 1R,2R,4S)-2-cyano-4-hydroxycyclohexyl]-3-{[4-(1-methoxy-1-methylethyl)phenyl]amino}-1H-pyrazole-4-carboxamide] the IC50 was 0.45 nM.

Each compound was assayed against JAK2 (recombinant purified GST-tagged catalytic domain) (Homo sapiens (Human), UniProt O60674) (assay: biochemical).
Chain of JAK2 (recombinant purified GST-tagged catalytic domain) (O60674 849-1124): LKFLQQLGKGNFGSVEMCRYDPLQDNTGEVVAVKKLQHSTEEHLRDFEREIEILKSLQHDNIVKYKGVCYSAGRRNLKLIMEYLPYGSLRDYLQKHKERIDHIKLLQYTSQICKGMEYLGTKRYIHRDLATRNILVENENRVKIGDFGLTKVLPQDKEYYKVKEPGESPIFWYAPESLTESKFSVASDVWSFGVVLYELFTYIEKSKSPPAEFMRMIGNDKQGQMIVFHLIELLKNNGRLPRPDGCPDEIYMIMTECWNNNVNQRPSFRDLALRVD
Work on `N#C[C@H]1C[C@H](N2CCC2)CC[C@@H]1n1cc(C(N)=O)c(Nc2ccc([C@H](O)C(F)(F)F)cc2)n1` (single isomer, unassigned) [Example 28-65, 1-[(1S,2S,4R or 1R,2R,4S)-4-azetidin-1-yl-2-cyanocyclohexyl]-3-({4-[(1S or 1R)-2,2,2-trifluoro-1-hydroxyethyl]phenyl}amino)-1H-pyrazole-4-carboxamide] yielded an IC50 of 12 nM.
Work on `N#C[C@H]1C[C@H](NC2CC2)CC[C@@H]1n1cc(C(N)=O)c(Nc2ccc(C(F)(F)F)cc2)n1` (single isomer, unassigned) [Example 28-139, 1-[(1S,2S,4R or 1R,2R,4R)-2-cyano-4-(cyclopropylamino)cyclohexyl]-3-{[4-(trifluoromethyl)phenyl]amino}-1H-pyrazole-4-carboxamide] yielded an IC50 of 113 nM.
`N#Cc1ccc(Nc2nn([C@H]3CCCC[C@@H]3C#N)cc2C(N)=O)cn1` (single isomer, unassigned) [Example 17-75, 1-[(1R,2R or 1S,2S)-2-cyanocyclohexyl]-3-[(6-cyanopyridin-3-yl)amino]-1H-pyrazole-4-carboxamide] gave an IC50 of 22 nM.
`N#C[C@H]1C[C@H](OCC2CC2)CC[C@@H]1n1cc(C(N)=O)c(Nc2ccc([C@H](O)C(F)(F)F)cc2)n1` (single isomer, unassigned) [Example 26-7, 1-[(1S,2S,4R or 1R,2R,4S)-2-cyano-4-(cyclopropylmethoxy)cyclohexyl]-3-({4-[(1S or 1R)-2,2,2-trifluoro-1-hydroxyethyl]phenyl]amino)-1H-pyrazole-4-carboxamide] gave an IC50 of 9 nM.
`N#C[C@H]1C[C@@H](OCC2CC2)CC[C@@H]1n1cc(C(N)=O)c(Nc2ccc(F)cc2)n1` (single isomer, unassigned) [Example 26-9, 1-[(1S,2S,4S or 1R,2R,4R)-2-cyano-4-(cyclopropylmethoxy)cyclohexyl]-3-[(4-fluorophenyl)amino]-1H-pyrazole-4-carboxamide] gave an IC50 of 33 nM.
